Marks after values point to notes of the source that are not given here. Values belong to the molecule of their own block, whether it stands above or below them.
Assays:
hA2BAR = target: hA2BAR; set-up: method as in PMID 35395239; conditions: taken from previous experiments ref 71; read-out: KD at CHO-spap-hA2BAR membranes; cited from earlier work
hA3AR [1] = target: T1, hA3AR (Homo sapiens, UniProt P0DMS8); test: Wash-out assay, [3H]PSB-11 binding after washing; conditions: 1 μM compound, pre-incubated 2 h at 25 °C, washed 4 times
T1 construct: expressed in transfected cells; host or cells: CHO cells (CHOhA3AR), gift of Prof; K.N. Klotz, University of Würzburg; used as membrane fractions or live cells
T1 sequence (P0DMS8 1-318): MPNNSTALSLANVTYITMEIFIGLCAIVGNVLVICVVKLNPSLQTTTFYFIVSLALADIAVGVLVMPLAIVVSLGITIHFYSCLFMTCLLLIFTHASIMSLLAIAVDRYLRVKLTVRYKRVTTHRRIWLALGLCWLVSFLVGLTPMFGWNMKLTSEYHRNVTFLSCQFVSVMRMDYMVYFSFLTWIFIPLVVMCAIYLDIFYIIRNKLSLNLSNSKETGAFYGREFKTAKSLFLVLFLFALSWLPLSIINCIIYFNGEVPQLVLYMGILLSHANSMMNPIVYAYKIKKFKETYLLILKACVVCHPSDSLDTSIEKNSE
Protocol: 200 μL assay buffer (50 mM Tris–HCl, pH 8.0, 10 mM MgCl2, 1 mM EDTA and 0.01% CHAPS), 100 μL assay buffer containing the competing ligand (final concentration: 1 μM), and 100 μL of CHOhA3AR membrane fractions (100 μg protein) were combined and pre-incubated for 2 h at 25 °C while shaking. The ‘4× washed’ samples were centrifuged (5 min, 13,000 rpm, 4 °C), and the supernatant was removed. The resulting pellet was dissolved in 1 mL of assay buffer and incubated for 10 min at 25 °C while shaking. The ‘4× washed’ samples were then again centrifuged (2 min, 13,000 rpm, 4 °C), the supernatant was removed, and the resulting pellet was dissolved in 1 mL of assay buffer. The latter washing steps were repeated two times (four times washing total), and the final pellet was dissolved in 300 μL assay buffer. The radioligand (10 nM [^3H]PSB-11) in 100 μL of assay buffer was added to all samples, and the samples were incubated at 25 °C for 1 h. Nonspecific binding was determined in the presence of 100 μM NECA. Incubations were terminated by addition of 1 mL of ice-cold washing buffer (50 mM Tris–HCl, pH 8.0, 10 mM MgCl2, 1 mM EDTA) and rapid vacuum filtration through prewetted 96-well GF/B filter plates using a Brandel harvester. Filters were subsequently washed 5 times with ice-cold wash buffer. The plates were dried under vacuum, and a MicroscintTM-20 cocktail (PerkinElmer) was added subsequently. After 3 h, the filter-bound radioactivity was determined using a 2450 MicroBeta Microplate Counter (PerkinElmer).

human A1AR (hA1AR) = target: T2, human A1AR (hA1AR) (Homo sapiens, UniProt P30542); test: Single-point radioligand displacement, [3H]DPCPX; type: binding; conditions: 1 μM probe; CHO cell membranes; co-incubated with radioligand 30 min at 25 °C; mean of two experiments
T2 construct: expressed in transfected cells; host or cells: CHO cells (CHOhA1AR), gift of Prof; S.J. Hill, University of Nottingham; membrane fractions
T2 sequence (P30542 1-326): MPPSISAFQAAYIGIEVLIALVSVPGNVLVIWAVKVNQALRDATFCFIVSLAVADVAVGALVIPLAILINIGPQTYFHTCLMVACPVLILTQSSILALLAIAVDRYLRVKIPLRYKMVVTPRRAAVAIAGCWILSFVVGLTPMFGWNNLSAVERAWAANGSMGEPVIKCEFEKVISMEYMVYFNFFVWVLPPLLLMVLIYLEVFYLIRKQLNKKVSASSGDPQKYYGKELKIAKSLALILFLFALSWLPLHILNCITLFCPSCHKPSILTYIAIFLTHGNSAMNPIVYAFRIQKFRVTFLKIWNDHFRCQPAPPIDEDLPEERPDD
Protocol: (§1) Membrane aliquots containing 15 μg (CHOhA3AR), 5 μg (CHOhA1AR), or 30 μg (HEK293hA2AAR and CHO-spap-A2BAR) of protein were resuspended in assay buffer (A3AR: 50 mM Tris–HCl, pH 8.0, 10 mM MgCl2, 1 mM EDTA, 0.01% CHAPS; A1AR and A2AAR: 50 mM Tris–HCl, pH 7.4; A2BAR: 50 mM Tris–HCl, pH 7.4, 0.1% CHAPS). […] Nonspecific binding was determined in the presence of 100 μM NECA (A3AR), 100 μM CPA (A1AR), 100 μM NECA (A2AAR), and 10 μM ZM241385 (A2BAR). Incubations were terminated by rapid vacuum filtration to separate the bound and free radioligand through prewetted 96-well GF/C filter plates using a PerkinElmer Filtermate harvester. Filters were subsequently washed 12 times with ice-cold wash buffer (A3AR: 50 mM Tris–HCl, pH 8.0, 10 mM MgCl2, 1 mM EDTA; A1AR and A2AAR: 50 mM Tris–HCl, pH 7.4; A2BAR: 50 mM Tris–HCl, pH 7.4, 0.1% BSA). The plates were dried at 55 °C, and MicroscintTM-20 cocktail (PerkinElmer) was added subsequently.
(§2) Single point displacement values shown are mean percentages of two individual experiments performed in duplicate. All pKi values shown are mean values ± SEM of three individual experiments performed in duplicate.

human A2AAR (hA2AAR) = target: T3, human A2AAR (hA2AAR) (Homo sapiens, UniProt P29274); test: Single-point radioligand displacement, [3H]ZM241385; type: binding; conditions: 1 μM probe; HEK293 cell membranes; co-incubated with radioligand 30 min at 25 °C; mean of two experiments
T3 construct: expressed in transfected cells; host or cells: HEK293 cells (HEKhA2AAR), gift of Dr. J. Wang, Biogen; membrane fractions
T3 sequence (P29274 whole entry): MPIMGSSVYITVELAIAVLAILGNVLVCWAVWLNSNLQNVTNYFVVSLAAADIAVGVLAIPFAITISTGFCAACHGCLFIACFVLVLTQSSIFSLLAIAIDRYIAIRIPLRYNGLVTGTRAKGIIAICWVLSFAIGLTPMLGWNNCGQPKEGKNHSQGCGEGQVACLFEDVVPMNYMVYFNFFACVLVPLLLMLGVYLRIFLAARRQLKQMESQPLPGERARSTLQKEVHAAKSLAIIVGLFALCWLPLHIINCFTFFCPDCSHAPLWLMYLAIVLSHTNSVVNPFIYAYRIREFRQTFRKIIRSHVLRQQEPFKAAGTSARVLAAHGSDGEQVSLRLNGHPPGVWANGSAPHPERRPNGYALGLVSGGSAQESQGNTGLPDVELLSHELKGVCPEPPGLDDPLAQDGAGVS
Protocol: as §1, §2

human A2BAR (hA2BAR) = target: T4, human A2BAR (hA2BAR) (Homo sapiens, UniProt P29275); test: Single-point radioligand displacement, [3H]PSB-603; type: binding; conditions: 1 μM probe; CHO-spap cell membranes; co-incubated with radioligand 30 min at 25 °C; mean of two experiments
T4 construct: expressed in transfected cells; host or cells: CHO-spap cells (CHO-spap-hA2BAR), gift of S.J. Dowell, GlaxoSmithKline; membrane fractions
T4 sequence (P29275 1-332): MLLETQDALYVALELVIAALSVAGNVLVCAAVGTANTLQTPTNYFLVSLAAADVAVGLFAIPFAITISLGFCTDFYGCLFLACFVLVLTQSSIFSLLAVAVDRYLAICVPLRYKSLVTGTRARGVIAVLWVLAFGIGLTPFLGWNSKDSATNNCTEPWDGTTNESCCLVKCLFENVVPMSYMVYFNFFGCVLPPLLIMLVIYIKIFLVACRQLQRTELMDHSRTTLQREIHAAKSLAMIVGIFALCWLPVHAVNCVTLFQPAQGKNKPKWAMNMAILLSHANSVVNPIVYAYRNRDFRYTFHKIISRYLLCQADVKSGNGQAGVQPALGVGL
Protocol: as §1, §2

hA3AR [2] = target: T1, hA3AR; test: Single-point radioligand displacement, [3H]PSB-11; type: binding; conditions: 1 μM probe; CHO cell membranes; co-incubated with radioligand 30 min at 25 °C; mean of two experiments
Protocol: as §1, §2

hA3AR [3] = target: T1, hA3AR; test: Full curve radioligand displacement assay on the adenosine A3 receptor, [3H]PSB-11; type: binding; conditions: mean ± SEM, n=3
Protocol: Membrane aliquots containing 15 μg of protein (CHOhA3AR) were resuspended in assay buffer (50 mM Tris–HCl, pH 8.0, 10 mM MgCl2, 1 mM EDTA, 0.01% CHAPS). The competing ligand (concentrations ranging from 0.1 to 1000 nM) was added and pre-incubated with the membrane fractions for either 0 or 4 h. The radioligand (10 nM [^3H]PSB-11) was then added and incubated with the samples in a total volume of 100 μL of assay buffer for 30 min at 25 °C. Nonspecific binding was determined in the presence of 100 μM NECA. Incubations were terminated by rapid vacuum filtration through prewetted 96-well GF/C filter plates using a PerkinElmer Filtermate harvester. Filters were subsequently washed 12 times with ice-cold wash buffer (50 mM Tris–HCl, pH 8.0, 10 mM MgCl2, 1 mM EDTA). The plates were dried at 55 °C, and MicroscintTM-20 cocktail (PerkinElmer) was added subsequently. After 3 h, the filter-bound radioactivity was determined using a Tri-Carb 2810TR Liquid Scintillation Analyzer (PerkinElmer).
(§3) […]. Single point displacement values shown are mean percentages of two individual experiments performed in duplicate. All pKi values shown are mean values ± SEM of three individual experiments performed in duplicate. Statistical analysis was performed using a one-way ANOVA test with multiple comparisons (****p < 0.0001).

hA1AR = target: T5, hA1AR (Homo sapiens, UniProt P30542); test: Full curve displacement assays on the hA1AR; type: binding; conditions: from full curve displacement assays (Table S1)
T5 construct: expressed in transfected cells; host or cells: CHO cells (CHOhA1AR), gift of Prof; S.J. Hill, University of Nottingham; membrane fractions
T5 sequence (P30542 1-326): T2 sequence (P30542 1-326)
Protocol: The affinity of the synthesized AfBPs was determined in radioligand binding experiments. First, single concentration displacement assays were carried out on all four human adenosine receptors, using a final probe concentration of 1 μM (Table 1). […] This quick screen indicated a good selectivity toward the hA3AR over the other human ARs, a trend that was also observed in the case of the parent compound.[34] Next, the ‘apparent’ affinities (depicted as pKi values) toward the hA3AR were determined using full curve displacement assays. To study the presumable covalent mode of action, the apparent affinity was determined with (pre-4 h) and without (pre-0 h) 4 h of pre-incubation of AfBP with hA3AR, prior to addition of radioligand. […] This difference in affinity was reflected in a shift in apparent pKi. […] To further investigate selectivity toward the hA3AR over the hA1AR, full curve displacement assays were carried out on the hA1AR.
as §3

SMILES: CCCn1c(=O)[nH]c2nc(-c3ccc(S(=O)(=O)N4CCN(c5ccc(Cl)cc5)CC4)cc3)[nH]c2c1=O [[^3H]PSB603]
- Kd (hA2BAR): 1.7 nM

- binding to hA3AR after wash-out ([3H]PSB-11 binding recovery) (hA3AR [1]): full recovery of radioligand binding
SMILES: CCCn1c(=O)c2c(nc3cc(OC)ccn32)n(CCCNC(=O)c2ccc(S(C)(=O)=O)cc2)c1=O [LUF7714, reference compound]

SMILES: C#CCn1c(=O)c2c(nc3cc(OC)ccn32)n(CCCNC(=O)c2ccc(S(=O)(=O)F)cc2)c1=O [compound 13, 4-((3-(8-Methoxy-2,4-dioxo-3-(prop-2-yn-1-yl)-3,4-dihydropyrido[2,1-f]purin-1(2H)-yl)propyl)carbamoyl)benzenesulfonyl fluoride]
- % specific [3H]DPCPX displacement, hA1AR (human A1AR (hA1AR)): 25%
- % specific [3H]ZM241385 displacement, hA2AAR (human A2AAR (hA2AAR)): 8%
- % specific [3H]PSB-603 displacement, hA2BAR (human A2BAR (hA2BAR)): 5%
- % specific [3H]PSB-11 displacement, hA3AR (hA3AR [2]): 92%
- apparent pKi (pre-0 h) (hA3AR [3]; CHO-hA3AR membranes, 25 °C, 0.5 h co-incubation of probe and radioligand, no pre-incubation): 7.17 ± 0.04
- apparent pKi (pre-4 h) (hA3AR [3]; CHO-hA3AR membranes, 25 °C, 4 h pre-incubation with probe then 0.5 h co-incubation with radioligand): 8.38 ± 0.05 ^d
- fold change, ratio Ki(0 h)/Ki(4 h) (hA3AR [3]; hA3AR): 16.6 ± 3.5
- binding to hA3AR after wash-out ([3H]PSB-11 binding recovery) (hA3AR [1]): persistent binding

- selectivity toward the hA3AR over the hA1AR (hA1AR): > 7 fold
SMILES: COc1ccn2c(c1)nc1c2c(=O)[nH]c(=O)n1CCCNC(=O)OC(C)(C)C [compound 11, tert-Butyl-(3-(8-methoxy-2,4-dioxo-3,4-dihydropyrido[2,1-f]purin-1(2H)-yl)propyl)carbamate]

Reference: paper PMC10461224, “Development of an Affinity-Based Probe to Profile Endogenous Human Adenosine A3 Receptor Expression” (Journal of Medicinal Chemistry, 2023)
